A word on the Ki: it is a dissociation constant, usually derived from enzyme kinetics or from competition with a known ligand.

Here are results for 21 compounds from patent publication US8791148B2, “Substituted benzimidazolone derivatives, medicaments comprising them and their use” (AbbVie Deutschland GmbH & Co. KG, priority 2006, dated 2014).

Where only a bound is given, the exact number is not on record here.

The test concerns the target T1, human vasopressin V1b receptor (Homo sapiens, UniProt P47901).
T1 construct: expressed in transfected cells; host or cells: CHO-K1 (cell line hV1b-3H2_CHO), membrane preparation
T1 sequence (P47901 1-424): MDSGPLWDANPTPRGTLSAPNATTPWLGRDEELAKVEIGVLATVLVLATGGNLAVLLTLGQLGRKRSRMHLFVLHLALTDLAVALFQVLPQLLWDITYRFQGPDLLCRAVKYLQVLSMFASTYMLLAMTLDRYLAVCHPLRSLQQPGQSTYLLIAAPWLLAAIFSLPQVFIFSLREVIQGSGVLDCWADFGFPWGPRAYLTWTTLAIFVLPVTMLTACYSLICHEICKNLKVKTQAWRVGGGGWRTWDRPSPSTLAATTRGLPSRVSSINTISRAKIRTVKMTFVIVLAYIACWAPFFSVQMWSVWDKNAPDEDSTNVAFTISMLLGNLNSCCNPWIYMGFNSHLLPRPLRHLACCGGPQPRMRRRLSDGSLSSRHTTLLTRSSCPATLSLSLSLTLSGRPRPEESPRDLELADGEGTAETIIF
The experiment in a line: Vasopressin V1b receptor binding assay. The note with it: membranes from CHO-K1 cells with stably expressed human V1b receptors; displacement of 1.5 nM 3H-AVP; read-out: V1b receptor affinity (affinity constant Ki). The gist of the method:
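Membranes expressing human V1b receptor were incubated with radioligand and test compound (2% DMSO final) in 50 mM Tris, 10 mM MgCl2, 0.1% BSA, pH 7.4, for 60 min at room temperature, in triplicate. 1 uM AVP defined nonspecific binding. Bound ligand was separated by filtration and counted by scintillation; Ki came from nonlinear regression.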

For `COc1ccc(S(=O)(=O)n2c(=O)n(C(C(=O)N3CCC[C@H](N4CCNCC4)C3)c3ccccc3)c3cc(C#N)ccc32)cc1` (stereo partly drawn) [Example 195, 1-(4-Methoxybenzenesulfonyl)-2-oxo-3-[2-oxo-1-phenyl-2-((S)-3-piperazin-1-ylpiperidin-1-yl)ethyl]-2,3-dihydro-1H-benzimidazole-5-carbonitrile], the Ki was less than 100 nM. The same measure for `CCCN1CCN([C@H]2CCN(C(=O)C(c3ccccc3)n3c(=O)n(S(=O)(=O)c4ccc(OC)cc4OC)c4ccc(C#N)cc43)C2)CC1` (stereo partly drawn) [Example 199, 1-(2,4-Dimethoxybenzenesulfonyl)-2-oxo-3-{2-oxo-1-phenyl-2-[(S)-3-(4-propylpiperazin-1-yl)pyrrolidin-1-yl]ethyl}-2,3-dihydro-1H-benzimidazole-5-carbonitrile]: less than 100 nM; for `CCCN1CCN([C@H]2CCN(C(=O)C(c3ccccc3)n3c(=O)n(S(=O)(=O)c4cccc5cccnc45)c4ccc(C#N)cc43)C2)CC1` (stereo partly drawn) [Example 200, 2-oxo-3-{2-oxo-1-phenyl-2-[(S)-3-(4-propylpiperazin-1-yl)pyrrolidin-1-yl]-ethyl}-1-(quinoline-8-sulfonyl)-2,3-dihydro-1H-benzimidazole-5-carbonitrile]: 500 to 10000 nM. For `CCCN1CCN([C@H]2CCN(C(=O)C(c3ccccc3)n3c(=O)n(S(=O)(=O)c4cccs4)c4ccc(C#N)cc43)C2)CC1` (stereo partly drawn) [Example 201, 2-oxo-3-{2-oxo-1-phenyl-2-[(S)-3-(4-propylpiperazin-1-yl)pyrrolidin-1-yl]-ethyl}-1-(thiophene-2-sulfonyl)-2,3-dihydro-1H-benzimidazole-5-carbonitrile], the inhibition constant (Ki) was 100 to 500 nM.

`CCCN1CCN([C@H]2CCN(C(=O)C(c3ccccc3)n3c(=O)n(S(=O)(=O)c4ccccc4)c4ccc(C#N)cc43)C2)CC1` (stereo partly drawn) [Example 202, 1-Benzenesulfonyl-2-oxo-3-{2-oxo-1-phenyl-2-[(S)-3-(4-propylpiperazin-1-yl)-pyrrolidin-1-yl]ethyl}-2,3-dihydro-1H-benzimidazole-5-carbonitrile]: the Ki fell in the range of 100 to 500 nM. As to `CCCN1CCN([C@H]2CCN(C(=O)C(c3ccccc3)n3c(=O)n(S(=O)(=O)c4ccsc4)c4ccc(C#N)cc43)C2)CC1` (stereo partly drawn) [Example 203, 2-oxo-3-{2-oxo-1-phenyl-2-[(S)-3-(4-propylpiperazin-1-yl)pyrrolidin-1-yl]-ethyl}-1-(thiophene-3-sulfonyl)-2,3-dihydro-1H-benzimidazole-5-carbonitrile], the Ki is less than 100 nM. On to `CCCN1CCN([C@H]2CCN(C(=O)C(c3ccccc3)n3c(=O)n(S(=O)(=O)c4ccc(C)cn4)c4ccc(C#N)cc43)C2)CC1` (stereo partly drawn) [Example 204, 1-(5-Methylpyridine-2-sulfonyl)-2-oxo-3-{2-oxo-1-phenyl-2-[(S)-3-(4-propylpiperazin-1-yl)pyrrolidin-1-yl]ethyl}-2,3-dihydro-1H-benzimidazole-5-carbonitrile], for which the Ki was in the range of 100 to 500 nM. Then `CCCN1CCN([C@H]2CCN(C(=O)C(c3ccccc3)n3c(=O)n(S(=O)(=O)c4ccccc4OC)c4ccc(C#N)cc43)C2)CC1` (stereo partly drawn) [Example 205, 1-(2-Methoxybenzenesulfonyl)-2-oxo-3-{2-oxo-1-phenyl-2-[(S)-3-(4-propylpiperazin-1-yl)pyrrolidin-1-yl]ethyl}-2,3-dihydro-1H-benzimidazole-5-carbonitrile], with 500 to 10000 nM. Take `COc1ccc(S(=O)(=O)n2c(=O)n(C(C(=O)N3CCC(NC4CCN(C)CC4)CC3)c3ccccc3)c3cc(C#N)ccc32)cc1` (stereo not drawn) [Example 206, 1-(4-Methoxybenzenesulfonyl)-3-{2-[4-(1-methylpiperidin-4-ylamino)piperidin-1-yl]-2-oxo-1-phenylethyl}-2-oxo-2,3-dihydro-1H-benzimidazole-5-carbonitrile]: the Ki is less than 100 nM. Consider `COc1ccc(S(=O)(=O)n2c(=O)n(C(C(=O)N3CC[C@H](NC4CCN(C)CC4)C3)c3ccccc3)c3cc(C#N)ccc32)cc1` (stereo partly drawn) [Example 207, 1-(4-Methoxybenzenesulfonyl)-3-{2-[(S)-3-(1-methylpiperidin-4-ylamino)-pyrrolidin-1-yl]-2-oxo-1-phenylethyl}-2-oxo-2,3-dihydro-1H-benzimidazole-5-carbonitrile], for which the inhibition constant Ki is less than 100 nM. As for `COc1ccc(S(=O)(=O)n2c(=O)n(C(C(=O)N3CC[C@H](NC4CCN(C(C)C)CC4)C3)c3ccccc3)c3cc(C#N)ccc32)cc1` (stereo partly drawn) [Example 208, 3-{2-[(S)-3-(1-Isopropylpiperidin-4-ylamino)pyrrolidin-1-yl]-2-oxo-1-phenylethyl}-1-(4-methoxybenzenesulfonyl)-2-oxo-2,3-dihydro-1H-benzimidazole-5-carbonitrile], the inhibition constant (Ki) is less than 100 nM. In the case of `CCN1CCC(N[C@H]2CCN(C(=O)C(c3ccccc3)n3c(=O)n(S(=O)(=O)c4ccc(OC)cc4)c4ccc(C#N)cc43)C2)CC1` (stereo partly drawn) [Example 209, 3-{2-[(S)-3-(1-Ethylpiperidin-4-ylamino)pyrrolidin-1-yl]-2-oxo-1-phenylethyl}-1-(4-methoxybenzenesulfonyl)-2-oxo-2,3-dihydro-1H-benzimidazole-5-carbonitrile], the inhibition constant (Ki) was less than 100 nM.

As to `CCCN1CCC(N[C@H]2CCN(C(=O)C(c3ccccc3)n3c(=O)n(S(=O)(=O)c4ccc(OC)cc4)c4ccc(C#N)cc43)C2)CC1` (stereo partly drawn) [Example 210, 1-(4-Methoxybenzenesulfonyl)-2-oxo-3-{2-oxo-1-phenyl-2-[(S)-3-(1-propylpiperidin-4-ylamino)pyrrolidin-1-yl]ethyl}-2,3-dihydro-1H-benzimidazole-5-carbonitrile], the Ki was less than 100 nM.

For the compound `COc1ccc(S(=O)(=O)n2c(=O)n(C(C(=O)N3CC[C@H](N(C)C4CCN(C)CC4)C3)c3ccccc3)c3cc(C#N)ccc32)cc1` (stereo partly drawn) [Example 211, 1-(4-Methoxybenzenesulfonyl)-3-(2-{(S)-3-[methyl-(1-methylpiperidin-4-yl)-amino]pyrrolidin-1-yl}-2-oxo-1-phenylethyl)-2-oxo-2,3-dihydro-1H-benzimidazole-5-carbonitrile], the inhibition constant (Ki) was less than 100 nM.

In the case of `CCCN1CCN([C@H]2CCN(C(=O)C(c3ccccc3)n3c(=O)n(S(=O)(=O)c4ccc(C#N)cc4)c4ccc(C#N)cc43)C2)CC1` (stereo partly drawn) [Example 215, 1-(4-Cyano-benzenesulfonyl)-2-oxo-3-{2-oxo-1-phenyl-2-[(S)-3-(4-propylpiperazin-1-yl)-pyrrolidin-1-yl]ethyl}-2,3-dihydro-1H-benzoimidazole-5-carbonitrile], the Ki is 100 to 500 nM. With `COc1ccc(S(=O)(=O)n2c(=O)n(C(C(=O)N3CC[C@H](NC(=O)OC(C)(C)C)C3)c3ccccc3)c3cc(C#N)ccc32)cc1` (stereo partly drawn) [Example 216, ((S)-1-{2-[6-Cyano-3-(4-methoxy-benzenesulfonyl)-2-oxo-2,3-dihydrobenzoimidazol-1-yl]-2-phenyl-acetyl}-pyrrolidin-3-yl)-carbamic acid tert-butyl ester], the inhibition constant (Ki) lay in the range of 500 to 10000 nM.

With `COc1ccc(S(=O)(=O)n2c(=O)n(C(C(=O)N3CC[C@H](CN4CCN(Cc5ccccc5)CC4)C3)c3ccccc3)c3cc(C#N)ccc32)cc1` (stereo partly drawn) [Example 220, 3-{2-[(R)-3-(4-Benzyl-piperazin-1-ylmethyl)-pyrrolidin-1-yl]-2-oxo-1-phenylethyl}-1-(4-methoxy-benzenesulfonyl)-2-oxo-2,3-dihydro-1H-benzoimidazole-5-carbonitrile; compound with trifluoroacetic acid], the Ki was less than 100 nM. On to `COc1ccc(S(=O)(=O)n2c(=O)n(C(C(=O)N3CC[C@@H](CN4CCN(Cc5ccccc5)CC4)C3)c3ccccc3)c3cc(C#N)ccc32)cc1` (stereo partly drawn) [Example 221, 3-{2-[(S)-3-(4-Benzyl-piperazin-1-ylmethyl)-pyrrolidin-1-yl]-2-oxo-1-phenylethyl}-1-(4-methoxy-benzenesulfonyl)-2-oxo-2,3-dihydro-1H-benzoimidazole-5-carbonitrile; compound with trifluoroacetic acid], for which the inhibition constant (Ki) is less than 100 nM.

Turning to `COc1ccc(S(=O)(=O)n2c(=O)n(C(C(=O)N3CC[C@H](CN4CCNCC4)C3)c3ccccc3)c3cc(C#N)ccc32)cc1` (stereo partly drawn) [Example 226, 1-(4-Methoxy-benzenesulfonyl)-2-oxo-3-[2-oxo-1-phenyl-2-((R)-3-piperazin-1-ylmethyl-pyrrolidin-1-yl)-ethyl]-2,3-dihydro-1H-benzoimidazole-5-carbonitrile], the inhibition constant (Ki) was less than 100 nM. Regarding `CCN1CCN([C@H]2CCCN(C(=O)C(c3ccccc3)n3c(=O)n(S(=O)(=O)c4ccc(OC)cc4)c4ccc(C#N)cc43)C2)CC1` (stereo partly drawn) [Example 231, 3-{2-[(S)-3-(4-Ethyl-piperazin-1-yl)-piperidin-1-yl]-2-oxo-1-phenyl-ethyl}-1-(4-methoxy-benzenesulfonyl)-2-oxo-2,3-dihydro-1H-benzoimidazole-5-carbonitrile; compound with trifluoroacetic acid], the Ki was less than 100 nM.

As for `CCCN1CCN([C@H]2CCN(C(=O)C(c3ccccc3)n3c(=O)n(S(=O)(=O)c4ccc(OCCF)cc4)c4ccc(C#N)cc43)C2)CC1` (stereo partly drawn) [Example 232, 1-[4-(2-Fluoro-ethoxy)-benzenesulfonyl]-2-oxo-3-{2-oxo-1-phenyl-2-[(S)-3-(4-propyl-piperazin-1-yl)-pyrrolidin-1-yl]-ethyl}-2,3-dihydro-1H-benzoimidazole-5-carbonitrile], the Ki was in the range of 100 to 500 nM.
